The values below come from US9127038B2, “Kisspeptide-pentasaccharide conjugates” (Merck Sharp & Dohme Corp., priority 2011, dated 2015).

The target in one series is T1, human KISS-receptor (Homo sapiens, UniProt Q969F8).
T1 construct: expressed in transfected cells; host or cells: CHO-k1 cells that also express mitochondrially targeted aequorin, Gα16 and an NFAT-luciferase reporter
Description: NFAT-regulated luciferase reporter gene assay in CHO-k1 cells, agonist activity. The class given is cell-based. Background: A reporter such as luciferase makes a cellular process visible.

A short description of series [1]: In vitro stability in human serum (LC/MS/MS). The following applies: human.
Description: Test compound is added to 1.5 mL human serum in a 96-wells deepwell plate in a final concentration of 750 nM. The compound is mixed and immediately thereafter a 100 μl sample is harvested in a 96-wells 2D-tuberack (T=0 sample). The 2 D-tubes are closed with rubber tube caps and the sample plate is stored at −20° CF. in the freezer. The deepwell plate is put into an incubator which was set at humidified (95%) atmosphere at 5-7% CO2 and 37° C. for an incubation period of maximum 240 h. During this incubation period, samples of 100 μl are collected on various time intervals, dependent on the test compound used; time points 0, 1, 2, 3, 6, 24, 48, 72 h in case of Kisspeptides and 0, 3, 6, 24, 48, 72, 168, 240 h in case of kisspeptide-pentasaccharide conjugates. Sample plates are put on ice in case of sampling and stored at −20° C. until analysis by LC/MS/MS.
For LC-MS/MS analysis, the compounds are separated over an XTerra RP8 column and using a gradient mobile phase of ammonium acetate buffer and acetonitrile at a fixed column temperature. MS/MS detection is done with a triple quadrupole mass spectrometer and employing negative ion electrospray ionization. The mass spectrometer is set up to achieve a known degree of in source fragmentation, where the initially formed multiply charged negative ions lose one or more SO3 molecules. The most abundant of these secondary ions are then subjected to a common MS/MS experiment in which a single SO3 loss is monitored. The Q1 and Q3 mass filter settings for this MS/MS experiment have commonly been determined in method development. […] Internal standardization is accomplished by adding a different conjugate of approximately the same size to the bioanalytical samples.
The rate of compound loss is expressed as a half-life (plasma t^1/2). The t^1/2 for the test compound can be determined by plotting the natural logarithm (In) of the measured concentrations against time and fitting the line through all data points. The gradient of this line is the first order rate constant (k) for substrate disappearance and is determined by regression analysis. The rate constant is converted to a half-life according to the following equation: In vitro half-life(t^1/2)=−ln 2/k
Setting [2] is: absence of human serum, read-out: pEC50 (converted).
Setting [3] is: presence of 20% human serum, read-out: pEC50 serum (converted).

Read-outs that look alike come from different tables or passages of the source.

T1 sequence (Q969F8 whole entry): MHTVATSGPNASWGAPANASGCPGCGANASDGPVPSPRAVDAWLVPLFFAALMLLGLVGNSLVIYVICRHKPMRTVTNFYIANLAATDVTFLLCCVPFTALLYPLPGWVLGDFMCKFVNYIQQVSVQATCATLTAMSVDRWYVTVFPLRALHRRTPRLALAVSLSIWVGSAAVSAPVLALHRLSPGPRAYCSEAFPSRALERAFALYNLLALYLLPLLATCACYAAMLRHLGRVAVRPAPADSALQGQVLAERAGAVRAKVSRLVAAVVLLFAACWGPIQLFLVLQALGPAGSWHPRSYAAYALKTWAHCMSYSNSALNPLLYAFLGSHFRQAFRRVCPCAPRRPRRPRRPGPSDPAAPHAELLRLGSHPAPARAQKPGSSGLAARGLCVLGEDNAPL
Description for human KISS-receptor: CHO-k1 cells were used that expressed the mitochondrially targeted aequorine and Gα16 (from Euroscreen, Brussels, Belgium), a Nuclear Factor of Activated T-cells-responsive element (NFAT) under the control of a promoter directing the expression of a firefly luciferase reporter gene (pNFAT-TALuc obtained from Clontech, Mountain View, Calif.), and the human GPR54-R Hygro(+)-hGPR54WT c4; MSD). These cells were cultured in Dulbecco's Modified Eagle Medium: Nutrient Mixture F-12 (DMEM/F12) (Invitrogen, Carlsbad, Calif.), supplemented with 10% (vol/vol) filtered bovine serum (Hyclone, Thermo Fisher Scientific, Waltham, Mass.), 100 U/ml penicillin G, 100 μg/ml streptomycin, 400 μg/ml Geneticin and 400 μg/ml Hygromycin (Invitrogen). […] Kisspeptin-10 was used as a standard. […] When the conjugates were tested in the presence of a final percentage of 20% human serum, 10 μl assay medium containing 60% human serum (Sigma-Aldrich, #H4522) was added to the wells. In the absence of human serum, 10 μl of assay medium was added. Cells were harvested and diluted to a concentration of 7.5E5 cells/ml in assay medium without 0.1% BSA. 10 μl of cell solution was added to the compound wells. After incubation for 4 hours in a humidified atmosphere at 5% CO2 and 37° C., the plate was left at room temperature for 30 minutes. Subsequently, 15 μl of Steadylite™ solution (PerkinElmer, Boston, Mass.) was added and the cells, protected from light, were allowed to lyse for 30 min at room temperature. Luminescence, indicated as relative luminescence units (RLU), was measured on an Envision Multilabel reader (PerkinElmer).

The half-life is how long it takes for the measured level to halve. A higher half-life goes with slow decline. Take `CO[C@H]1O[C@H](COS(=O)(=O)O)[C@@H](O[C@@H]2O[C@@H](C(=O)O)[C@@H](O[C@H]3O[C@H](COS(=O)(=O)O)[C@@H](O[C@@H]4O[C@H](C(=O)O)[C@@H](O[C@H]5O[C@H](COS(=O)(=O)O)[C@@H](OCCOCCOCCOCCNC(=O)CCc6cn(CCCCC(=O)N[C@@H](Cc7ccc(O)cc7)C(=O)N[C@@H](CC(N)=O)C(=O)N[C@@H](Cc7c[nH]c8ccccc78)C(=O)N[C@@H](CC(N)=O)C(=O)N[C@@H](CO)C(=O)N[C@@H](Cc7ccccc7)C(=O)NCC(=O)N[C@@H](CC(C)C)C(=O)N[C@@H](CCCNC(=N)N)C(=O)N[C@@H](Cc7ccccc7)C(N)=O)nn6)[C@H](OC)[C@H]5OC)[C@H](OC)[C@H]4OC)[C@H](OS(=O)(=O)O)[C@H]3OS(=O)(=O)O)[C@H](OC)[C@H]2OC)[C@H](OS(=O)(=O)O)[C@H]1OS(=O)(=O)O` [Conjugate C42, reference compound]: the results for the EC50 at human KISS-receptor (setting [2]) and on human KISS-receptor (setting [3]) were 1.58 nM and 31.6 nM, respectively. In addition, the “potency (in words)” value at human KISS-receptor (in words) is given as “not sufficiently potent”. This compound also showed a half-life at 750 nM in series [1] of 121 h.

With `CNC(=N)NCCC[C@H](NC(=O)[C@H](CC(C)C)n1cc(CNC(=O)[C@H](Cc2ccccc2)NC(=O)[C@@H](NC(=O)[C@H](CC(N)=O)NC(=O)[C@H](Cc2c[nH]c3ccccc23)NC(=O)[C@H](CC(N)=O)NC(=O)[C@@H](Cc2ccc(O)cc2)NC(=O)CCOCCOCCOCCOCCn2cc(CCC(=O)NCCOCCOCCOCCO[C@H]3[C@H](OC)[C@@H](OC)[C@@H](O[C@H]4[C@H](OC)[C@@H](OC)[C@H](O[C@H]5[C@H](OS(=O)(=O)O)[C@@H](OS(=O)(=O)O)[C@@H](O[C@H]6[C@H](OC)[C@@H](OC)[C@H](O[C@H]7[C@H](OS(=O)(=O)O)[C@@H](OS(=O)(=O)O)[C@@H](OC)O[C@@H]7COS(=O)(=O)O)O[C@H]6C(=O)O)O[C@@H]5COS(=O)(=O)O)O[C@@H]4C(=O)O)O[C@@H]3COS(=O)(=O)O)nn2)[C@@H](C)O)nn1)C(=O)N[C@@H](Cc1ccccc1)C(N)=O` [Conjugate C20], the half-life at 750 nM in series [1] was more than 240 h. The same measure, in the same setting: next, `CNC(=N)NCCC[C@H](NC(=O)[C@H](CC(C)C)NC(=O)NNC(=O)[C@H](Cc1ccccc1)NC(=O)[C@@H](NC(=O)[C@H](CC(N)=O)NC(=O)[C@H](Cc1c[nH]c2ccccc12)NC(=O)[C@H](CC(N)=O)NC(=O)[C@H](Cc1ccc(O)cc1)NC(=O)CCCCn1cc(CCC(=O)NCCOCCOCCOCCO[C@H]2[C@H](OC)[C@@H](OC)[C@@H](O[C@H]3[C@H](OC)[C@@H](OC)[C@H](O[C@H]4[C@H](OS(=O)(=O)O)[C@@H](OS(=O)(=O)O)[C@@H](O[C@H]5[C@H](OC)[C@@H](OC)[C@H](O[C@H]6[C@H](OS(=O)(=O)O)[C@@H](OS(=O)(=O)O)[C@@H](OC)O[C@@H]6COS(=O)(=O)O)O[C@H]5C(=O)O)O[C@@H]4COS(=O)(=O)O)O[C@@H]3C(=O)O)O[C@@H]2COS(=O)(=O)O)nn1)[C@@H](C)O)C(=O)N[C@@H](Cc1ccccc1)C(N)=O` [Conjugate C22]: more than 240 h; `CNC(=N)NCCC[C@H](NC(=O)[C@H](CC(C)C)NC(=O)CNC(=O)[C@H](Cc1ccccc1)NC(=O)[C@@H](NC(=O)[C@H](CC(N)=O)NC(=O)[C@@H]1C[C@@H](O)CN1C(=O)[C@H](CC(N)=O)NC(=O)[C@H](Cc1ccc(O)cc1)NC(=O)CCOCCOCCOCCOCCn1cc(CCC(=O)NCCOCCOCCOCCO[C@H]2[C@H](OC)[C@@H](OC)[C@@H](O[C@H]3[C@H](OC)[C@@H](OC)[C@H](O[C@H]4[C@H](OS(=O)(=O)O)[C@@H](OS(=O)(=O)O)[C@@H](O[C@H]5[C@H](OC)[C@@H](OC)[C@H](O[C@H]6[C@H](OS(=O)(=O)O)[C@@H](OS(=O)(=O)O)[C@@H](OC)O[C@@H]6COS(=O)(=O)O)O[C@H]5C(=O)O)O[C@@H]4COS(=O)(=O)O)O[C@@H]3C(=O)O)O[C@@H]2COS(=O)(=O)O)nn1)[C@@H](C)O)C(=O)N[C@@H](Cc1ccccc1)C(N)=O` [Conjugate C26]: more than 240 h; `CNC(=N)NCCC[C@H](NC(=O)[C@H](CC(C)C)n1cc(CNC(=O)[C@H](Cc2ccccc2)NC(=O)[C@@H](NC(=O)[C@H](CC(N)=O)NC(=O)[C@H](Cc2c[nH]c3ccccc23)NC(=O)[C@H](CC(N)=O)NC(=O)[C@@H](Cc2ccc(O)cc2)NC(=O)CCCCn2cc(CCC(=O)NCCOCCOCCOCCO[C@H]3[C@H](OC)[C@@H](OC)[C@@H](O[C@H]4[C@H](OC)[C@@H](OC)[C@H](O[C@H]5[C@H](OS(=O)(=O)O)[C@@H](OS(=O)(=O)O)[C@@H](O[C@H]6[C@H](OC)[C@@H](OC)[C@H](O[C@H]7[C@H](OC)[C@@H](OS(=O)(=O)O)[C@@H](OC)O[C@@H]7COS(=O)(=O)O)O[C@H]6C(=O)O)O[C@@H]5COS(=O)(=O)O)O[C@@H]4C(=O)O)O[C@@H]3COS(=O)(=O)O)nn2)[C@@H](C)O)nn1)C(=O)N[C@@H](Cc1ccccc1)C(N)=O` [Conjugate C18]: 233 h. `CNC(=N)NCCC[C@H](NC(=O)[C@H](CC(C)C)n1cc(CNC(=O)[C@H](Cc2ccccc2)NC(=O)[C@@H](NC(=O)[C@H](CC(N)=O)NC(=O)[C@H](Cc2c[nH]c3ccccc23)NC(=O)[C@H](CC(N)=O)NC(=O)[C@@H](Cc2ccc(O)cc2)NC(=O)CCOCCOCCOCCOCCn2cc(CCC(=O)NCCOCCOCCOCCO[C@H]3[C@H](OC)[C@@H](OC)[C@@H](O[C@H]4[C@H](OC)[C@@H](OC)[C@H](O[C@H]5[C@H](OS(=O)(=O)O)[C@@H](OS(=O)(=O)O)[C@@H](O[C@H]6[C@H](OC)[C@@H](OC)[C@H](O[C@H]7[C@H](OC)[C@@H](OS(=O)(=O)O)[C@@H](OC)O[C@@H]7COS(=O)(=O)O)O[C@H]6C(=O)O)O[C@@H]5COS(=O)(=O)O)O[C@@H]4C(=O)O)O[C@@H]3COS(=O)(=O)O)nn2)[C@@H](C)O)nn1)C(=O)N[C@@H](Cc1ccccc1)C(N)=O` [Conjugate C19] showed a half-life at 750 nM in series [1] of 175 h. Same read-out and setting: next, `CNC(=N)NCCC[C@H](NC(=O)[C@H](CC(C)C)NC(=O)NNC(=O)[C@H](Cc1ccccc1)NC(=O)[C@@H](NC(=O)[C@H](CC(N)=O)NC(=O)[C@@H]1C[C@@H](O)CN1C(=O)[C@@H](Cc1ccc(O)cc1)NC(=O)CCCCn1cc(CCC(=O)NCCOCCOCCOCCO[C@H]2[C@H](OC)[C@@H](OC)[C@@H](O[C@H]3[C@H](OC)[C@@H](OC)[C@H](O[C@H]4[C@H](OS(=O)(=O)O)[C@@H](OS(=O)(=O)O)[C@@H](O[C@H]5[C@H](OC)[C@@H](OC)[C@H](O[C@H]6[C@H](OS(=O)(=O)O)[C@@H](OS(=O)(=O)O)[C@@H](OC)O[C@@H]6COS(=O)(=O)O)O[C@H]5C(=O)O)O[C@@H]4COS(=O)(=O)O)O[C@@H]3C(=O)O)O[C@@H]2COS(=O)(=O)O)nn1)[C@@H](C)O)C(=O)N[C@@H](Cc1c[nH]c2ccccc12)C(N)=O` [Conjugate C31]: more than 240 h.

Regarding `CNC(=N)NCCC[C@H](NC(=O)[C@H](CC(C)C)NC(=O)NNC(=O)[C@H](Cc1ccccc1)NC(=O)[C@@H](NC(=O)[C@H](CC(N)=O)NC(=O)[C@@H]1C[C@@H](O)CN1C(=O)[C@@H](Cc1ccc(O)cc1)NC(=O)CCOCCOCCOCCOCCn1cc(CCC(=O)NCCOCCOCCOCCOCC(=O)NCCOCCOCCOCCO[C@H]2[C@H](OC)[C@@H](OC)[C@@H](O[C@H]3[C@H](OC)[C@@H](OC)[C@H](O[C@H]4[C@H](OS(=O)(=O)O)[C@@H](OS(=O)(=O)O)[C@@H](O[C@H]5[C@H](OC)[C@@H](OC)[C@H](O[C@H]6[C@H](OC)[C@@H](OS(=O)(=O)O)[C@@H](OC)O[C@@H]6COS(=O)(=O)O)O[C@H]5C(=O)O)O[C@@H]4COS(=O)(=O)O)O[C@@H]3C(=O)O)O[C@@H]2COS(=O)(=O)O)nn1)[C@@H](C)O)C(=O)N[C@@H](Cc1c[nH]c2ccccc12)C(N)=O` [Conjugate C32], the EC50 at human KISS-receptor (setting [2]) was 0.151 nM; at human KISS-receptor (setting [3]), 0.355 nM. The corresponding values for `CO[C@H]1O[C@H](COS(=O)(=O)O)[C@@H](O[C@@H]2O[C@@H](C(=O)O)[C@@H](O[C@H]3O[C@H](COS(=O)(=O)O)[C@@H](O[C@@H]4O[C@H](C(=O)O)[C@@H](O[C@H]5O[C@H](COS(=O)(=O)O)[C@@H](OCCOCCOCCOCCNC(=O)CCc6cn(CCCCC(=O)N[C@H](Cc7ccc(O)cc7)C(=O)N7C[C@H](O)C[C@H]7C(=O)N[C@@H](CC(N)=O)C(=O)N[C@H](C(=O)N[C@@H](Cc7ccccc7)C(=O)NCC(=O)N[C@@H](CC(C)C)C(=O)N[C@@H](CCCNC(=N)N)C(=O)N[C@@H](Cc7c[nH]c8ccccc78)C(N)=O)[C@@H](C)O)nn6)[C@H](OC)[C@H]5OC)[C@H](OC)[C@H]4OC)[C@H](OS(=O)(=O)O)[C@H]3OS(=O)(=O)O)[C@H](OC)[C@H]2OC)[C@H](OS(=O)(=O)O)[C@H]1OS(=O)(=O)O` [Conjugate C39] are 0.0646 nM and 2.69 nM. In the case of `CNC(=N)NCCC[C@H](NC(=O)[C@H](CC(C)C)NC(=O)CNC(=O)[C@H](Cc1ccccc1)NC(=O)[C@@H](NC(=O)[C@H](CC(N)=O)NC(=O)[C@H](Cc1ccccc1)NC(=O)[C@H](CC(N)=O)NC(=O)[C@H](Cc1ccc(O)cc1)NC(=O)CCCCn1cc(CCC(=O)NCCOCCOCCOCCO[C@H]2[C@H](OC)[C@@H](OC)[C@@H](O[C@H]3[C@H](OC)[C@@H](OC)[C@H](O[C@H]4[C@H](OS(=O)(=O)O)[C@@H](OS(=O)(=O)O)[C@@H](O[C@H]5[C@H](OC)[C@@H](OC)[C@H](O[C@H]6[C@H](OS(=O)(=O)O)[C@@H](OS(=O)(=O)O)[C@@H](OC)O[C@@H]6COS(=O)(=O)O)O[C@H]5C(=O)O)O[C@@H]4COS(=O)(=O)O)O[C@@H]3C(=O)O)O[C@@H]2COS(=O)(=O)O)nn1)[C@@H](C)O)C(=O)N[C@@H](Cc1ccccc1)C(N)=O` [Conjugate C29], the EC50 at human KISS-receptor (setting [2]) is 0.407 nM; at human KISS-receptor (setting [3]), 8.13 nM. In series [1], `CNC(=N)NCCC[C@H](NC(=O)[C@H](CC(C)C)NC(=O)NNC(=O)[C@H](Cc1ccccc1)NC(=O)[C@@H](NC(=O)[C@H](CC(N)=O)NC(=O)[C@H](Cc1c[nH]c2ccccc12)NC(=O)[C@H](CC(N)=O)NC(=O)[C@@H](Cc1ccc(O)cc1)NC(=O)CCOCCOCCOCCOCCn1cc(CCC(=O)NCCOCCOCCOCCO[C@H]2[C@H](OC)[C@@H](OC)[C@@H](O[C@H]3[C@H](OC)[C@@H](OC)[C@H](O[C@H]4[C@H](OS(=O)(=O)O)[C@@H](OS(=O)(=O)O)[C@@H](O[C@H]5[C@H](OC)[C@@H](OC)[C@H](O[C@H]6[C@H](OS(=O)(=O)O)[C@@H](OS(=O)(=O)O)[C@@H](OC)O[C@@H]6COS(=O)(=O)O)O[C@H]5C(=O)O)O[C@@H]4COS(=O)(=O)O)O[C@@H]3C(=O)O)O[C@@H]2COS(=O)(=O)O)nn1)C(C)O)C(=O)N[C@@H](Cc1ccccc1)C(N)=O` (some centres unmarked) [Conjugate C11] gave a half-life at 750 nM of more than 240 h.
